Measurements reported in patent publication US8357671B2, “High affinity Siglec ligands” (priority 2005, dated 2013).
pIC50: −log10 of the molar value. Several values for one entry are separate records, joined by “and”; a condition that tells them apart may be missing. Equal entries are not always repeated.

Assays:
[1] = target: T1, mouse CD22 (Mus musculus, UniProt P35329); experiment: ELISA inhibition assay: CD22-Fc chimera binding to immobilized NeuGc-LN; conditions: for pIC50: inhibition of CD22-Fc binding to immobilized NeuGcα2,6LacNAc, read-out: IC 50 value mCd22; for rIP mCd22 (relative inhibitory potency): relative to NeuGc-LN = 1
T1 construct: made in house
T1 sequence (P35329 with tags, fused parts or gaps limits assumed): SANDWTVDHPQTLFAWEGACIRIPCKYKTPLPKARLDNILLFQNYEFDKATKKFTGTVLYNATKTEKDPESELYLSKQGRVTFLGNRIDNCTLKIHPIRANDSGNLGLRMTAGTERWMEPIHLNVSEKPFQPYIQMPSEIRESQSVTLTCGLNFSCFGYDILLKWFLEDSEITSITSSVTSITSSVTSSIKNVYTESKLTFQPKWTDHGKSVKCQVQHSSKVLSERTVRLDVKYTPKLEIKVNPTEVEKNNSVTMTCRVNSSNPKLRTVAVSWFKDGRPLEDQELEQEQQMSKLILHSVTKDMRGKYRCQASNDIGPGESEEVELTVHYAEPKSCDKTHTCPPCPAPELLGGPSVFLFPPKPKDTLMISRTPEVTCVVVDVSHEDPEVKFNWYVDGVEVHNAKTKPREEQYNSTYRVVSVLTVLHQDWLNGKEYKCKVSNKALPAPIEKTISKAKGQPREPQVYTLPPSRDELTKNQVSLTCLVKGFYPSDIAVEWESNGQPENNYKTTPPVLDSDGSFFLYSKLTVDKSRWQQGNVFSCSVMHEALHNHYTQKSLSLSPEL
Procedure: (§1) FIG. 1A-B illustrate that sialosides with derivation at position 9 that includes a neutral core and a hydrophobic moiety are potent inhibitors for CD22. Similar inhibitors can be made by derivation at position 5. […] FIG. 1B graphically illustrates competitive inhibition of selected sialoside inhibitors. Inhibitors were added with soluble CD22-Fc chimeras to block the chimera binding to immobilized NeuAcα2-6Galβ1-4GlcNAc (NeuAc-LN, human CD22, hCD22) or NeuGcα2,6Galβ1-4GlcNAc (NeuGc-LN, mouse CD22, mCD22). Data are the average +/−S.D. of triplicate determinations and are representative of two individual assays.
(§2) ELISA inhibition assays: For inhibition assays, high binding 96 well microtiter plates (Corning Costar) were coated with neutravidin by incubation with 50 ul of 1 mg/ml Neutravidin (Pierce Biotechnology) in 50 mM Na bicarbonate pH 9.5 overnight at 4° C. The wells were then washed with PBS and blocked with PBS containing 5 mg/ml BSA for 1 hr at 37° C. Fifty microliters of a selected biotinylated sialoside (0.33 uM) was added to each well, and allowed to bind for 1 hr at room temperature. The sialoside was then allowed to bind for 1 hr at 37° C. and the wells were washed.
(§3) The CD22-Fc chimera employed was produced as described in Blixt et al. (J. Biol. Chem. 278: 31007-19 (2003)) and diluted to 0.1 mg/ml into HBSS (with 5 mg/ml BSA and 1 mM EDTA). An F(ab′)2 Fragment Goat anti-Human IgG (Jackson Immunoresearch) (0.066 mg/ml) was mixed and allowed to complex with Peroxidase conjugated F(AB′)2 Fragment Rabbit anti Goat F(ab′)2 specific (0.010 mg/ml) for 15 min. CD22-Fc (1.5 ml) was added to 1 ml of the pre-complexed solution and allowed to further associate with complexes in that solution for 15 min. The inhibitor of interest was diluted into HBSS. Twenty-five microliters of the inhibitor and 25 ul of the CD22Fc complex were added to each well and the plates were incubated for 30 min at 37° C. The plates were then washed 4 times with 200 ul of HBSS. Wells were developed with 50 ul of 1 mg/ml OPD (Sigma), 0.03% H2O2 in 50 mM phosphate/citrate, pH 5.0. The reaction was stopped with 50 ul of 2.5 M H2SO4 and the optical density at 450 nm (OD450) was measured.

[2] = target: T2, cell surface CD22 (hCD22) on Daudi cells (Homo sapiens, UniProt P20273); experiment: Inhibition of NeuAc-LN-PAA probe binding to sialidase-treated Daudi cells; format: cell-based; conditions: inhibitor 10, 30, 200 uM
T2 construct: endogenous in cells; host or cells: Daudi cells (sialidase-treated)
T2 sequence (P20273 20-847): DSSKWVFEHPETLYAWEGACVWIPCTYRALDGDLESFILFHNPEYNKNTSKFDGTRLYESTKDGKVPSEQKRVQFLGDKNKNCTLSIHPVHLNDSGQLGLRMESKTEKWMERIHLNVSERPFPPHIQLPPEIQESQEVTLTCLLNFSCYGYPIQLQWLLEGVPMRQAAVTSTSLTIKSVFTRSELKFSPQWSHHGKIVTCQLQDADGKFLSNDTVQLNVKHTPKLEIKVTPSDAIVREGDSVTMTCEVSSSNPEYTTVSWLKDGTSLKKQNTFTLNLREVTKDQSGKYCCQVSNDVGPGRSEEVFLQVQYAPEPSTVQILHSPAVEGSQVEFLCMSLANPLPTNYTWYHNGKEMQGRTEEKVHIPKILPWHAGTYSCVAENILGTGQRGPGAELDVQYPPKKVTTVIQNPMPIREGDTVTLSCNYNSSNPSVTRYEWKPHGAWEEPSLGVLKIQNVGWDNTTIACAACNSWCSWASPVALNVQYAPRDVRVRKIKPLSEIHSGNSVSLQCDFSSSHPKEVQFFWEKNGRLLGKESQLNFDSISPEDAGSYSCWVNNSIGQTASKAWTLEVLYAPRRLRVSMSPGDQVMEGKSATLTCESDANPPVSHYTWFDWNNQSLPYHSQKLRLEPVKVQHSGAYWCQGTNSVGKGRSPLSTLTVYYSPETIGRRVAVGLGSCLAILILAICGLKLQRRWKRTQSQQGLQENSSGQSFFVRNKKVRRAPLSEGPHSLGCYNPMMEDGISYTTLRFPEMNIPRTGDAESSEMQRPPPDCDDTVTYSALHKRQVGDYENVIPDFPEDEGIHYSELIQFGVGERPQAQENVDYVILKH
Procedure: FIG. 2A-B illustrate inhibition of multivalent sialoside probe binding to cell surface CD22 by potent biphenyl (BP) derivatives. FIG. 2A provides the results for murine splenocytes. Murine splenocytes were mock-treated (grey shaded peak) or actually treated with A. ureafaciens sialidase to cleave sialic acid-containing glycans from cell surfaces and thereby ‘unmask’ surface CD22. The cells were then incubated with NeuGc-LN-PAA alone (rightmost Black line, where PAA refers to a polyacrylamide carrier) or in the presence of 5 uM (light line to the right of center), 200 uM (central grey line) or 2 mM (leftmost dark grey line) of the indicated inhibitor for 1.5 h on ice, then washed. Bound probe was detected with streptavidin-PE, and B cells stained with anti-B220. Data are for B220+ cells only. FIG. 2B provides results for Daudi Cells. […] Bound probe was detected with streptavidin-PE and measured by flow cytometry. […]
Inhibition of Probe-Binding to B cells by Sialic Acid Inhibitors. […] These “cis” glycan ligands can mask binding of sialic acid ligands provided in “trans.” After treatment with sialidase, inhibition of B cell binding by monovalent BPC-NeuAc-LN and BPA-NeuGc-LN was detected for multivalent polyacrylamide (PAA) sialoside probes derivatized with NeuAc-LN (hCD22) or NeuGc-LN (mCD22) (FIG. 2).

[3] = target: T3, human CD22 (Homo sapiens, UniProt P20273); experiment: ELISA inhibition assay: CD22-Fc chimera binding to immobilized NeuAc-LN; conditions: for pIC50: inhibition of CD22-Fc binding to immobilized NeuAcα2,6LacNAc, read-out: IC 50 value hCd22; for rIP hCd22 (relative inhibitory potency): relative to NeuAc-LN = 1
T3 construct: made in house
T3 sequence (P20273 with tags, fused parts or gaps limits assumed): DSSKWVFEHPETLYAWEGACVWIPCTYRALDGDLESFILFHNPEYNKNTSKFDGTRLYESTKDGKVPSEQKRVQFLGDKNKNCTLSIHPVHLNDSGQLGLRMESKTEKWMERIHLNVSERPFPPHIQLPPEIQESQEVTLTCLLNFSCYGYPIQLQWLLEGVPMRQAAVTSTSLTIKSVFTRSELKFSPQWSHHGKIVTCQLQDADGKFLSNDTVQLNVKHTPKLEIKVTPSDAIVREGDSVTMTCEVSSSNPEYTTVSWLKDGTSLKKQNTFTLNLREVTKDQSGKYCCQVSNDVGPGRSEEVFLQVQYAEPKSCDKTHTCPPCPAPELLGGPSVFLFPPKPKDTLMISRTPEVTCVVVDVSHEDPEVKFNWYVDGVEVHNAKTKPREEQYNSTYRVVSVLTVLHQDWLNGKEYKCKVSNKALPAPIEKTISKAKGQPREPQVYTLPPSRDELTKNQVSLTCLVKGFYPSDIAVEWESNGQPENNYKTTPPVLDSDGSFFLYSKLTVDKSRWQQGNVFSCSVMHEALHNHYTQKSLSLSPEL
Procedure: as §1, §2, §3

[4] = target: T4, CD22 on asialo K20 cells (BJAB subclone) (Homo sapiens, UniProt P20273); experiment: Self-assembled IgM complex binding to asialo cells
T4 sequence (P20273 20-847): T2 sequence (P20273 20-847)
Procedure: Following washing, bound IgM was detected with FITC-labeled anti-Ig and read by flow cytometry. […] Free NP, the heterobifunctional ligand, and the IgM anti-NP were all added to BJAB cells and allowed to incubate on ice before washing. Bound IgM was detected as described for FIG. 5B. […] After binding of a self-assembled complex of NP-BPC and Alexa Fluor-labeled anti-NP IgM antibodies to BJAB cells on ice, the cells were washed and allowed to internalize the complex for the indicated period of time. After a brief acid wash to remove any surface IgM, internalized IgM was quantified by flow cytometry.
Cell Binding. BJAB cells, incubated with or without exogenous sialic acid (4 mM) for 2 days, were resuspended in HBSS/BSA at a density of 1×10^6 cells/ml and the varying amounts of IgM and the BPC-NP construct shown in FIG. 7 were added to the cells and allowed to bind for 1 hr on ice. Cells were then washed with 1 ml of HBSS/BSA and then incubated with FITC-labeled anti-IgM for 30 min on ice. After washing again, the cells were read by flow cytometry.
To further evaluate the ability for the IgM complex to bind to CD22 on B cells, cells deficient in cell-surface sialic acid were used.

[5] = target: T5, CD22Fc chimeras (hCD22Fc) (Homo sapiens, UniProt P20273); experiment: ELISA-type assay of IgM/NP-BPC/CD22 complex formation; format: binding
T5 construct: made in house; host or cells: COS cells
T5 sequence (P20273 with tags, fused parts or gaps limits assumed): as above
Procedure: FIG. 7A-7C illustrate a self-assembling B cell targeting complex as one aspect of the invention. […] CD22-Fc chimeras were immobilized onto protein A coated wells. After washing, the indicated amount of either NP, or NP-BPC was added along with the anti-NP IgM was added and allowed to bind for 30 min at room temperature. After washing, bound IgM was detected with HRP-conjugated anti-IgM and developed with OPD. Data are the average ±S.D. of triplicates, and are representative of 3 independent experiments.
ELISA-Type Assay. High Binding microtiter plates were coated with neutravidin (1 ug/50 ul/well in Na Bicarbonate pH 9.5) overnight at 4° C., then washed with 200 ul of HBSS/BSA. Culture supernatants containing hCD22Fc chimera were incubated in the wells for 2 h at room temperature. Wells were then washed and a mixture of IgM antibodies that recognize nitrophenyl groups (anti-NP antibodies) and 50 ul of varying concentrations of the BPC-Siaα2-6LN heterobifunctional ligand were added. The plates were allowed to bind for 30 min. […]
CD22Fc chimeras were immobilized onto microtiter plates and overlaid with mixtures of IgM anti-NP and NP or NP-BPC. Following washing, bound IgM complex was detected with HRP-conjugated anti-Ig antibodies. CD22-dependent binding of the complex was detected, with maximal IgM complex binding achieved when using less than 200 nM NP-BPC.

[6] = target: T6, CD22 on sialylated (native) BJAB cells (Homo sapiens, UniProt P20273); experiment: Self-assembled IgM complex binding to sialylated BJAB cells; format: cell-based; conditions: high concentration of cis ligands
T6 construct: endogenous in cells; host or cells: BJAB cells (incl. K20 subclone)
T6 sequence (P20273 20-847): T2 sequence (P20273 20-847)

[7] = test system: Siglec 10; experiment: PAA probe binding to Siglec 10; conditions: result in words
Text: Building on the binding studies described above, polyacrylamide (PAA) probes containing the BPA-NeuGc-LN or BPC-NeuAc-LN sialosides were synthesized and tested for binding to CD22. […] Siglec 10 another B cell lectin, however, binds well to the NeuGc-LN glycan, but in contrast to CD22, only weakly to the high molecular weight BPA derivative.

[8] = test system: BJAB cells; experiment: Measurement of probe internalization; format: cell-based, human; conditions: caveolin inhibitor
Procedure: To generate the data shown in FIG. 5A, BJAB cells grown in the presence of sera and supplemented with NeuAc were incubated with the high molecular weight BPC-NeuAc-LN-PAA (light and heavy lines) or LN-PAA (Shaded) probes for 1.5 h on ice, followed by CyChrome labeled streptavidin for 45 min on ice. After washing, the cells were then incubated at 37° C. for the indicated period of time. Following this incubation, cells were washed with HBSS/BSA (shaded peak and heavy line) or RPMI pH 2.5 (light line). Bound or internalized probe was detected by flow cytometry. To generate the data shown in FIG. 5B, cells were washed with RPMI:Water (1/1) and then incubated for 1 hr in media with or without potassium. After pre-chilling on ice, cells were incubated in the corresponding media with the BPC-NeuAc-LN-PAA probe and then internalization was measured as above. Data are the average of two independent experiments.
Measurement of probe internalization. BJAB cells (2×10^6 cell/ml) were labeled with the PAA probe and streptavidin as above. Following staining, aliquots of 100 ul of the cell suspension were placed on ice or at 37° C. for selected periods of time. […]
Similarly, the ability for B cells to endocytose the PAA probes was determined. […] The remaining fluorescence as measured by flow cytometry as a measure of the amount of internalized probe.

Row | Compound | pIC50 [1] | rIP mCd22 (relative inhibitory potency) [1] | inhibition of NeuAc-LN-PAA probe binding [2] | pIC50 [3] | rIP hCd22 (relative inhibitory potency) [3] | inhibition of Siglec binding to immobilized sialoside ([3]; result in words) | binding to Siglec 10 [7] | concentration at maximal binding of the complex [4] | concentration for maximal IgM complex binding [5] | binding to CD22 on sialylated BJAB cells [6] | effect on probe internalization [8]
1 | 9-biphenylcarbonyl (BPC)-Neu5Acα2-6Galβ1-4GlcNAc [BPC-NeuAcLN] | 3.62 | 0.91 | complete inhibition | 5.70 and 5.66 | 100 |  |  |  |  |  | 
2 | CC(=O)NC1C(O)CC(O)(C(=O)O)OC1C(O)C(O)CNC(=O)c1ccc(-c2ccccc2)cc1 [BPC-NeuAc, 5-Acetamido-9-[(1,1′-biphenyl)-4-carboxamido]-3,5,9-trideoxy-D-glycero-D-galacto-2-nonulo-pyranosyl-onate] | 2.82 | 0.15 |  | 4.46 | 6.3 |  |  |  |  |  | 
3 | CC(=O)N[C@H]1[C@H](OCCNC(=O)Cc2ccc(O)c([N+](=O)[O-])c2)O[C@H](CO)[C@@H](O[C@@H]2O[C@H](CO[C@]3(C(=O)O)C[C@H](O)[C@@H](NC(C)=O)[C@H]([C@H](O)[C@H](O)CNC(=O)c4ccc(-c5ccccc5)cc4)O3)[C@H](O)[C@H](O)[C@H]2O)[C@@H]1O [NP-BPC, [(4′-hydroxyl-3′-nitrophenylacetamido)-ethyl-β-]-[[5-Acetamido-9-[(1,1′-biphenyl)-4-carboxamido]-3,5,9,trideoxy-D-glycero-D-galacto-2-nonulo-pyranosyl-onate-α2-6-O-D-galactopyranosyl-β1-4]]-D-2-acetamido-2-deoxy-glucopyranoside] |  |  |  |  |  |  |  | 0.16 µM | less than 200 nM | bound efficiently | 
4 | C[C@@H]1[C@H](O)[C@@H](C)/C=C/C=C/CC/C=C/C=C/C=C/C=C/C(O[C@H]2O[C@H](C)[C@@H](O)[C@H](N)[C@@H]2O)CC2O[C@](O)(CC(O)C(O)CCC(O)CC(O)CC(O)CC(=O)O[C@H]1C)CC(O)C2C(=O)O (stereo partly drawn) [nystatin] |  |  |  |  |  |  |  |  |  |  | did not inhibit

The next lines start with results.

Row | pIC50 [1] | rIP mCd22 (relative inhibitory potency) [1] | inhibition of NeuAc-LN-PAA probe binding [2] | pIC50 [3] | rIP hCd22 (relative inhibitory potency) [3] | inhibition of Siglec binding to immobilized sialoside ([3]; result in words) | binding to Siglec 10 [7] | Compound | concentration at maximal binding of the complex [4] | concentration for maximal IgM complex binding [5] | binding to CD22 on sialylated BJAB cells [6] | effect on probe internalization [8]
5 | < 2.70 | <0.1 |  | < 2.70 | <0.1 | no inhibition |  | CC(=O)N[C@H]1[C@H]([C@H](O)[C@H](O)CO)OC(O)(C(=O)O)C[C@@H]1O (stereo partly drawn) [NeuAc, N-acetylneuraminic acid] |  |  |  | 
6 | < 2.70 | <0.1 |  | 3.70 and 3.66 | 1 |  |  | CC(=O)N[C@@H]1[C@@H](O)[C@H](O[C@@H]2O[C@H](CO[C@]3(C(=O)O)C[C@H](O)[C@@H](NC(C)=O)[C@H]([C@H](O)[C@H](O)CO)O3)[C@H](O)[C@H](O)[C@H]2O)[C@@H](CO)O[C@H]1O [NeuAc-LN, NeuAcα2-6Galβ1-4GlcNAc] |  |  |  | 
7 | 3.66 | 1 |  | 3.59 | 0.85 |  | binds well | CC(=O)NC1C(O)OC(CO)C(OC2OC(COC3(C(=O)O)CC(O)C(NC(=O)CO)C(C(O)C(O)CO)O3)C(O)C(O)C2O)C1O (stereo not drawn) [NeuGc-LN, NeuGcα2,6Galβ1-4GlcNAc] |  |  |  | 
